Assay results taken from PubChem BioAssay (NCI).
“And” between values parts separate entries of the source, which are not always exact repeats. Equal values may be shown once.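 Dose response: 5 concentrations. Exposure: 48 h. Format: 96-well plates. Endpoint: linear interpolation; highest concentration if not reached. The concentration for 50% growth inhibition is given as GI50. At the TGI there is no net growth.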

Experiments:
Assay in all cases: NCI-60 cell line screen, 48 h
[1] = system: ACHN renal
[2] = system: CCRF-CEM leukemia
[3] = system: HL-60(TB) leukemia
[4] = system: MALME-3M melanoma
[5] = system: NCI-H226 lung
[6] = system: NCI-H522 lung
[7] = system: OVCAR-8 ovarian
[8] = system: RXF 393 renal
[9] = system: SF-295 CNS
[10] = system: SK-MEL-2 melanoma

COc1cc(Cn2c(=S)ss/c2=N\C(=S)N(C)C)cc(OC)c1OC
TGI [1]: > 88.8 µM
TGI [2]: > 77.5 µM
TGI [3]: > 61.5 µM
TGI [4]: > 100 µM
TGI [5]: > 71 µM
TGI [6]: 15.7 µM
TGI [7]: > 70.9 µM
TGI [8]: 29.5 µM
TGI [9]: 38.5 µM
TGI [10]: > 100 µM

CC(/C(=N/NC(=O)C(N)=O)c1c(Cl)ccc(Cl)c1O)C1(O)C(=O)Nc2ccccc21 (configuration not stated)
TGI [1]: > 100 µM
TGI [2]: 75.8 µM
TGI [3]: 68 µM
TGI [4]: > 100 µM
TGI [5]: > 100 µM
TGI [6]: 44.6 µM
TGI [7]: > 100 µM
TGI [8]: > 100 µM
TGI [9]: > 100 µM
TGI [10]: > 100 µM

O=C1C=C[C@@]23C[C@@H](Nc4c(O)c5c6c(c42)=NCCC=6C=N5)SC3=C1
GI50 [1]: 3.35 µM
TGI [1]: 9.16 µM
TGI [2]: > 27 µM
TGI [3]: 5.61 µM
TGI [4]: 2.52 µM
TGI [5]: 28.7 µM
TGI [6]: 3.13 µM
GI50 [7]: 1.87 µM
TGI [7]: 3.66 µM
GI50 [8]: 2.51 µM
TGI [8]: 8.81 µM
GI50 [9]: 6.68 µM
TGI [9]: 19.3 µM
GI50 [10]: 1.94 µM
TGI [10]: 4.03 µM

COc1ccc(C/C(C)=C(\c2ccc(OCCN3CCOCC3)cc2)c2ccc(OC(=O)Cc3ccccc3)cc2)cc1
GI50 [1]: 0.99 µM
TGI [1]: 3.38 µM
GI50 [2]: 0.813 µM
TGI [2]: 8.27 µM
GI50 [3]: 0.553 µM
TGI [3]: 1.26 µM
GI50 [4]: 0.531 µM
TGI [4]: 1.03 µM
GI50 [5]: 0.691 µM
TGI [5]: 2.38 µM
GI50 [6]: 0.564 µM
TGI [6]: 1.08 µM
GI50 [7]: 1.07 µM
TGI [7]: 11.3 µM
GI50 [8]: 0.438 µM
TGI [8]: 0.883 µM
GI50 [9]: 0.58 µM
TGI [9]: 1.12 µM
GI50 [10]: 0.657 µM
TGI [10]: 1.25 µM

CS(=O)(=O)OCCn1cnc2nc(NC(=O)c3ccccc3)[nH]c(=O)c21
TGI [1]: > 100 µM
TGI [2]: > 100 µM
TGI [3]: > 100 µM
TGI [4]: > 100 µM
TGI [5]: > 100 µM
TGI [6]: > 100 µM
TGI [7]: > 100 µM
TGI [8]: > 100 µM
TGI [9]: > 100 µM
TGI [10]: > 100 µM

COc1cc(C(O)c2nc3ccccc3s2)cc(OC)c1OC (configuration not stated)
GI50 [1]: 65.5 µM
TGI [1]: > 100 µM
GI50 [2]: 49.5 µM
TGI [2]: > 100 µM
GI50 [3]: 14.2 µM
TGI [3]: > 100 µM
GI50 [4]: 21.4 µM
TGI [4]: > 100 µM
GI50 [5]: 47.1 µM
TGI [5]: > 100 µM
GI50 [6]: 29.2 µM
TGI [6]: > 100 µM
GI50 [7]: > 100 µM
TGI [7]: > 100 µM
GI50 [8]: > 100 µM
TGI [8]: > 100 µM
GI50 [9]: 6.29 µM
TGI [9]: > 100 µM
GI50 [10]: > 100 µM
TGI [10]: > 100 µM

COc1ccc(-c2nnc(SCC(=O)Nc3ccc(/C(C)=N\O)cc3)n2-c2ccccc2)cc1OC
GI50 [1]: 8.08 µM
TGI [1]: > 100 µM
GI50 [2]: > 100 µM
TGI [2]: > 100 µM
GI50 [3]: > 100 µM
TGI [3]: > 100 µM
GI50 [4]: 17.2 µM
TGI [4]: > 100 µM
GI50 [5]: 7.28 µM
TGI [5]: > 100 µM
GI50 [6]: 21.4 µM
TGI [6]: > 100 µM
GI50 [7]: 7.36 µM
TGI [7]: > 100 µM
GI50 [8]: 2.56 µM
TGI [8]: 7.11 µM
GI50 [9]: 3.39 µM
TGI [9]: 37.7 µM
GI50 [10]: 5.04 µM
TGI [10]: 28.8 µM

Nc1ncnc2c1ncn2CC(O)C(=O)O (configuration not stated)
TGI [1]: > 100 µM
TGI [2]: > 100 µM
TGI [3]: > 100 µM
TGI [4]: > 100 µM
TGI [5]: > 100 µM
TGI [6]: > 100 µM
TGI [7]: > 100 µM
TGI [8]: > 100 µM
TGI [9]: > 100 µM
TGI [10]: > 100 µM

CCCCCCCCCCC(O)[C@H]1CCC(C2CC[C@H]([C@H](O)CCCCCCCCCCC(O)CC3=CC(C)OC3=O)O2)O1 (some centres not stated)
TGI [1]: 2.9 µM
TGI [2]: 5.37 µM
TGI [3]: 6.37 µM
TGI [4]: 4.32 µM
TGI [5]: 2.57 µM and 3.36 µM
TGI [6]: 5.06 µM
GI50 [7]: 2.29 µM
TGI [7]: 2.8 µM and 18.4 µM
TGI [8]: 5 µM
GI50 [9]: 0.29 µM
TGI [9]: 14.1 µM
GI50 [10]: 1.76 µM
TGI [10]: 3.43 µM and 4.72 µM

Cc1nc2cnc3cc(F)c(-c4ccc(Oc5ncccn5)cc4Cl)cc3c2n1[C@H]1CCN(C(=O)CO)C[C@@H]1F
GI50 [1]: 8.19 µM
TGI [1]: > 100 µM
GI50 [2]: 1.69 µM
TGI [2]: > 76.8 µM
GI50 [3]: 0.106 µM
TGI [3]: 1.69 µM
TGI [4]: 0.0316 µM
GI50 [5]: 5.18 µM
TGI [5]: 29.8 µM
GI50 [6]: 7.17 µM
TGI [6]: 32.7 µM
GI50 [7]: 7.35 µM
TGI [7]: > 100 µM
GI50 [8]: 2.02 µM
TGI [8]: 10.9 µM
GI50 [9]: 8.41 µM
TGI [9]: > 57.1 µM
GI50 [10]: 0.059 µM
TGI [10]: 0.536 µM

CCOC(=O)C1=C(NNC(=O)Cc2ccccc2)CSC1=Nc1ccccc1
TGI [1]: > 100 µM
TGI [2]: > 100 µM
TGI [3]: > 100 µM
TGI [4]: > 100 µM
TGI [5]: > 100 µM
TGI [6]: > 100 µM
TGI [7]: > 100 µM
TGI [8]: > 100 µM
TGI [9]: > 100 µM
TGI [10]: > 100 µM

C/C([O-])=C1\Cc2ccccc2C1=O.C/C([O-])=C1\Cc2ccccc2C1=O.CC[O-].CC[O-].[Ti+4]
GI50 [1]: 19.1 µM
TGI [1]: > 92.2 µM
GI50 [2]: 13.9 µM
TGI [2]: > 70.2 µM
GI50 [3]: 13.1 µM
TGI [3]: 50.8 µM
GI50 [4]: 18.8 µM
TGI [4]: > 59.8 µM
GI50 [5]: 7.47 µM
TGI [5]: 35.7 µM
GI50 [6]: 14.2 µM
TGI [6]: 47.6 µM
GI50 [7]: 12.9 µM
TGI [7]: 50.4 µM
GI50 [8]: 7.3 µM
TGI [8]: 21.9 µM
GI50 [9]: 14.5 µM
TGI [9]: 32 µM
GI50 [10]: 13.5 µM
TGI [10]: 33.6 µM

Cc1ccc2c(c1C)-c1c(ccc(C)c1C)C(=O)C2=O
TGI [1]: 3.91 µM
TGI [2]: 0.991 µM
TGI [3]: 0.702 µM
TGI [4]: 1.83 µM
TGI [5]: 5.91 µM
TGI [6]: 0.403 µM
TGI [7]: 0.905 µM
TGI [8]: 2.57 µM
TGI [9]: 2.95 µM
TGI [10]: 3.1 µM

C=CC1=C[C@@H]2[C@@H]3O[C@]4(CC[C@H](O4)[C@@H](C)C[C@@H](O)C3=O)C[C@H](O)C3=NCC[C@@]32CC1
GI50 [1]: < 0.00333 µM
TGI [1]: < 0.00333 µM
GI50 [2]: < 0.00333 µM
TGI [2]: > 33.3 µM
GI50 [3]: < 0.00333 µM
TGI [3]: < 0.00333 µM
GI50 [4]: < 0.00333 µM
TGI [4]: < 0.00333 µM
GI50 [5]: < 0.00333 µM
TGI [5]: < 0.00333 µM
GI50 [6]: < 0.00333 µM
TGI [6]: 0.00353 µM
GI50 [7]: < 0.00333 µM
TGI [7]: 0.044 µM
GI50 [8]: < 0.00333 µM
TGI [8]: < 0.00333 µM
GI50 [9]: < 0.00333 µM
TGI [9]: < 0.00333 µM
GI50 [10]: < 0.00333 µM
TGI [10]: 0.0117 µM

CC1=CCC(OC(=O)C(C)(C)CCC(O)(C(=O)OC2(C(C)C)CCC3(C)OC3C2)C(C)C)(C(C)C)CC1 (configuration not stated)
GI50 [1]: 0.107 µM
TGI [1]: 0.311 µM
GI50 [2]: 0.132 µM
TGI [2]: 50 µM
GI50 [3]: 0.229 µM
TGI [3]: 7.93 µM
GI50 [4]: 0.733 µM
TGI [4]: 1.48 µM
GI50 [5]: 0.693 µM
TGI [5]: 1.85 µM
GI50 [6]: 0.13 µM
TGI [6]: 0.439 µM
GI50 [7]: 0.611 µM
TGI [7]: 15.5 µM
GI50 [8]: 0.587 µM
TGI [8]: 1.25 µM
GI50 [9]: 0.69 µM
TGI [9]: 1.39 µM
GI50 [10]: 0.79 µM
TGI [10]: 1.78 µM
